# Test results published in PubChem BioAssay (NCI).
# Where “and” joins values, the source holds several entries; their conditions need not be identical. Identical values can stand only once.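 Method: 48-hour compound exposure of cells in 96-well plates, five concentrations, linear interpolation of endpoints. GI50 = concentration required for 50% inhibition of growth. TGI denotes the concentration required for complete inhibition of growth.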
# Key:
# Assay in all cases: NCI-60 cell line screen, 48 h
# [1] = system: SNB-75 CNS
# [2] = system: SNB-19 CNS
# [3] = system: HL-60(TB) leukemia
# [4] = system: CCRF-CEM leukemia
# [5] = system: ACHN renal
# [6] = system: HCT-15 colon
# [7] = system: SF-295 CNS
# [8] = system: KM12 colon
# [9] = system: T-47D breast
# [10] = system: K-562 leukemia
SMILES,GI50 [1],TGI [1],GI50 [2],TGI [2],GI50 [3],TGI [3] [µM],GI50 [4],TGI [4] [µM],GI50 [5] [µM],TGI [5] [µM],GI50 [6] [µM],TGI [6],GI50 [7] [µM],TGI [7] [µM],GI50 [8],TGI [8] [µM],GI50 [9],TGI [9],GI50 [10],TGI [10] [µM]
CCCCCCCCCCCCOC1C(CNCC2OC3OC(C)(C)OC3C2NC(=O)Nc2ccc(C(F)(F)F)cc2)OC2OC(C)(C)OC21 (centres undefined),6.04 µM,13.4 µM,9.07 µM,18 µM,0.0134 µM,0.364,2.45 µM,12.5,7.05,14,7.47,15 µM,9,17.9,3.7 µM,8.45,7.31 µM,16.9 µM,0.0327 µM,2.62
Cc1cc(Nc2cc(CN3CCOCC3)c3nc(C)c(Cc4ccc(Cl)cc4F)n3n2)n[nH]1,0.433 µM,2.4 µM,6.31 µM,19 µM,0.768 µM,2.86,0.59 µM,3.94,1.63,10.9,2.62,14.9 µM,1.79,5.73,0.0481 µM,5.6,1.23 µM,16.2 µM,0.473 µM,13.6
COc1cc2cn3c4ccc(O)cc4nc(N)c3c2cc1OC,0.0886 µM,7.49 µM,0.211 µM,16.7 µM,0.887 µM,2.41,0.181 µM,7.58,0.191,2.77,0.721,12.1 µM,0.265,11.5,0.885 µM,4.48,0.435 µM,16.4 µM,0.0348 µM,3.6
COc1ccc2[nH]c3c(C)c4cc[n+](C)cc4c(C)c3c2c1,0.158 µM and 0.324 µM,801 nM [middle of 4 runs],0.103 µM and 0.322 µM,1.04 µM [middle of 4 runs],8.31 µM and 9.67 µM,–,0.706 µM and 1.92 µM,–,4.04,> 85.3,–,> 100 µM and 110 µM and > 250 µM,0.107,–,0.34 µM and 0.817 µM,–,0.88 µM and 0.257 µM and 1.03 µM,12.6 µM and 3.63 µM and 11.2 µM,2 µM [middle of 4 runs],–
CSC1=Nc2c(c(C)c(-c3ccccc3)n2CCCCl)C2=NC(=O)CN12,2.83 µM,11.6 µM,3.97 µM,17.8 µM,3.41 µM,> 100,5.08 µM,> 100,9.48,37.7,4.11,21.4 µM,4.11,26.8,4.2 µM,18.7,2.63 µM,10.9 µM,5.77 µM,> 100
CC(N)(Cc1c[nH]c2ccccc12)C(=O)O (centres undefined),> 2500 µM,> 2500 µM,> 2500 µM,> 2500 µM,> 2500 µM,> 2500,> 2500 µM,> 2500,> 2500,> 2500,> 2500,> 2500 µM,> 2500,> 2500,> 2500 µM,> 2500,> 2500 µM,> 2500 µM,> 2500 µM,> 2500
O=c1c2[nH]c3ccccc3c2nc2n1CCS2,15.8 µM,77.3 µM,> 100 µM,> 100 µM,17.5 µM,> 100,0.598 µM,> 100,65.2,> 100,68.5,> 100 µM,> 100,> 100,67 µM,> 100,> 100 µM,> 100 µM,> 100 µM,> 100
O=C(C[C@@]1(O)C(=O)Nc2c(Cl)ccc(Cl)c21)c1ccc(C2CC2)cc1,0.143 µM,0.588 µM,0.69 µM,18.1 µM,0.263 µM,1.07,0.341 µM,> 100,0.726,31.3,0.102,13.6 µM,0.344,13.3,0.318 µM,14.2,0.454 µM,32.5 µM,0.05 µM,> 51.7
